According to ChEMBL document CHEMBL1130222, “Induction of the estrogen specific mitogenic response of MCF-7 cells by selected analogues of estradiol-17 beta: a 3D QSAR study” (J Med Chem, 1997):

Assays:
[1] = molecular target: Estrogen receptor (Homo sapiens) (UniProt Q92731+P03372)
Description: Estrogen receptor (ER) binding affinity

MCF7 = test: cells; settings: Homo sapiens
Description: Growth response in cultures of MCF-7 (human breast cancer cell line) cells

| SMILES | Ka [1] [M⁻¹] | EC50 (MCF7) [nM] |
| --- | --- | --- |
| C[C@]12CC[C@@H]3c4ccc(O)cc4C(=O)CC3[C@@H]1CC[C@@H]2O (single isomer, unassigned) | 1.09e+09 | 0.00338 |
| C[C@]12CC[C@@H]3c4ccc(O)cc4[C@@H](O)CC3[C@@H]1CC[C@@H]2O (single isomer, unassigned) | 8.88e+07 | 0.186 |
| C[C@]12CC[C@@H]3c4ccc(O)cc4C[C@@H](O)C3[C@@H]1CC[C@@H]2O (single isomer, unassigned) | 6.3e+07 | 0.153 |
| C[C@]12CC[C@@H]3c4ccccc4CCC3[C@@H]1CC[C@@H]2O (single isomer, unassigned) | 4.1e+08 | 0.316 |
| C[C@]12CC[C@@H]3c4cccc([N+](=O)[O-])c4CCC3[C@@H]1CC[C@@H]2O (single isomer, unassigned) | < 1.85e+06 | 34.2 |
| C[C@]12CC[C@@H]3c4ccc(O)cc4CCC3[C@@H]1C[C@@H](O)C2 (single isomer, unassigned) | 2.97e+09 | 0.237 |
| C[C@]12CC[C@@H]3c4cccc(I)c4CCC3[C@@H]1CC[C@@H]2O (single isomer, unassigned) | 4.44e+06 | 1.67 |
| C[C@]12CC[C@@H]3c4ccc(O)cc4C=C[C@@H]3[C@@H]1CC[C@@H]2O |  | 0.00419 |
| C[C@]12CC[C@@H]3c4cccc(O)c4CCC3[C@@H]1CC[C@@H]2O (single isomer, unassigned) | 2.5e+08 | 4.76 |
| C[C@]12CC[C@@H]3c4cc(O)ccc4CCC3[C@@H]1CC[C@@H]2O (single isomer, unassigned) | 2.6e+09 | 0.033 |
| C[C@]12CC[C@@H]3c4cc([N+](=O)[O-])c(O)cc4CCC3[C@@H]1CC[C@@H]2O (single isomer, unassigned) | 3.7e+06 | 33.5 |
| C[C@]12CC[C@H]3C(=CCc4cc(O)ccc43)[C@@H]1CC[C@@H]2O |  | 0.00154 |
| C[C@@]12CCC[C@H]1C1CCc3cc(O)ccc3[C@H]1CC2 (single isomer, unassigned) | 2.93e+09 | 0.118 |
| C[C@]12C[C@@H](O)[C@@H]3c4ccc(O)cc4CCC3[C@@H]1CC[C@@H]2O (single isomer, unassigned) | 1.15e+07 | 0.0365 |
| C[C@]12CCc3c(ccc4cc(O)ccc34)[C@@H]1CC[C@@H]2O | 1.52e+09 | 0.0125 |
| C[C@]12CC[C@@H]3c4c(O)cccc4CCC3[C@@H]1CC[C@@H]2O (single isomer, unassigned) | 1.8e+07 | 1.59 |
| C[C@]12CC[C@@H]3c4c(cccc4[N+](=O)[O-])CCC3[C@@H]1CC[C@@H]2O (single isomer, unassigned) | < 1.85e+06 | 60.4 |
| C[C@]12CC[C@@H]3c4ccc(O)c(N)c4CCC3[C@@H]1CC[C@@H]2O (single isomer, unassigned) | 2.11e+08 | 0.346 |
| C[C@]12CC[C@@H]3c4ccc(O)c([N+](=O)[O-])c4CCC3[C@@H]1CC[C@@H]2O (single isomer, unassigned) | 1.44e+08 | 0.9 |

| SMILES | Ka [1] [M⁻¹] | EC50 (MCF7) [nM] |
| --- | --- | --- |
| C[C@]12CC[C@@H]3c4ccc(O)cc4CC(=O)C3[C@@H]1CC[C@@H]2O (single isomer, unassigned) | 3.39e+09 | 0.016 |
| C[C@@]12CCC[C@H]1C1CCc3ccccc3[C@H]1CC2 (single isomer, unassigned) | < 1.8e+06 | 201 |
| C[C@]12C[C@H](O)[C@@H]3c4ccc(O)cc4CCC3[C@@H]1CC[C@@H]2O (single isomer, unassigned) | 6.22e+07 | 0.0163 |
| C[C@]12CC[C@@H]3c4ccc(N)cc4CCC3[C@@H]1CC[C@@H]2O (single isomer, unassigned) | 2.78e+11 | 1.5 |
| C[C@]12CC[C@@H]3c4c(N)cccc4CCC3[C@@H]1CC[C@@H]2O (single isomer, unassigned) | < 1.85e+06 | 28.4 |
| C[C@]12CC[C@@H]3c4ccc(O)cc4CCC3[C@@H]1C[C@@H](O)[C@@H]2O (single isomer, unassigned) [ESTRIOL] |  | 0.0483 |
| C[C@]12CC[C@@H]3c4cccc(N)c4CCC3[C@@H]1CC[C@@H]2O (single isomer, unassigned) | 2.15e+07 | 2 |
| C[C@]12CC(=O)[C@@H]3c4ccc(O)cc4CCC3[C@@H]1CC[C@@H]2O (single isomer, unassigned) | 3.33e+06 | 8.97 |
| C[C@]12CC[C@@H]3c4ccc(O)cc4C[C@H](O)C3[C@@H]1CC[C@@H]2O (single isomer, unassigned) | 3.66e+09 | 0.0122 |
| C[C@]12CC[C@@H]3c4cc(I)ccc4CCC3[C@@H]1CC[C@@H]2O (single isomer, unassigned) | 3.33e+06 | 1.7 |
| C[C@]12CC[C@@H]3c4cc(N)ccc4CCC3[C@@H]1CC[C@@H]2O (single isomer, unassigned) | 1.45e+08 | 0.127 |
| C[C@]12CC[C@H]3[C@H](CC=C4C[C@@H](O)CC[C@@]43C)[C@@H]1CC[C@@H]2O | 2.7e+07 | 1.41 |
| C[C@]12CC[C@@H]3c4ccc(I)cc4CCC3[C@@H]1CC[C@@H]2O (single isomer, unassigned) | 1.96e+07 | 0.174 |
| C[C@]12CC[C@@H](O)C[C@@H]1CCC1[C@@H]2CC[C@]2(C)[C@@H](O)CC[C@@H]12 (single isomer, unassigned) [ANDROSTANDIOL] | < 1.85e+06 | > 10000 |
| C[C@]12CC[C@@H]3c4cc([N+](=O)[O-])ccc4CCC3[C@@H]1CC[C@@H]2O (single isomer, unassigned) | < 1.85e+06 | 29.3 |
| C[C@]12CC[C@@H]3c4ccc(O)cc4[C@H](O)CC3[C@@H]1CC[C@@H]2O (single isomer, unassigned) | 7e+07 | 0.0571 |
| C[C@]12CC[C@@H]3c4cc(N)c(O)cc4CCC3[C@@H]1CC[C@@H]2O (single isomer, unassigned) | 1.33e+08 | 0.558 |
| C[C@]12CC[C@@H]3c4ccc([N+](=O)[O-])cc4CCC3[C@@H]1CC[C@@H]2O (single isomer, unassigned) | 7.77e+06 | 2.16 |
| C[C@]12CC[C@H](O)C[C@@H]1CCC1[C@@H]2CC[C@]2(C)[C@@H](O)CC[C@@H]12 (single isomer, unassigned) [ANDROSTANEDIOL] | 1.8e+07 | 4.66 |
